In ChEMBL document CHEMBL4373646, “Synthesis, ribosomal selectivity, and antibacterial activity of netilmicin 4'-derivatives” (Medchemcomm, 2019):
≈ marks a conversion by molar mass, not a printed value.

Legend:
[1] = Inhibition of human mitochondrial ribosome Mit 13 hybridized with Mycobacterium smegmatis ribosome assessed as inhibition of translation activity using Firefly luciferase mRNA reporter based luminescence analysis
[2] = system: human mitochondrial ribosome (Mit 13 hybrid); assay: Selectivity ratio of IC50 for inhibition of human mitochondrial ribosome Mit 13 hybridized with Mycobacterium smegmatis ribosome to IC50 for inhibition of Mycobacterium smegmatis wild type ribosomes; assay type: toxicity; conditions: read-out: Ratio IC50
[3] = Inhibition of human cytoplasmic ribosome Cyt 14 hybridized with Mycobacterium smegmatis ribosome assessed as inhibition of translation activity using Firefly luciferase mRNA reporter based luminescence analysis
Bacterial 70S ribosome = assay: Inhibition of Mycobacterium smegmatis wild type ribosomes assessed as inhibition of translation activity using Firefly luciferase mRNA reporter based luminescence analysis; assay type: subcellular, Mycolicibacterium smegmatis
[4] = system: human cytoplasmic ribosome (Cyt 14 hybrid); assay: Selectivity ratio of IC50 for inhibition of human cytoplasmic ribosome Cyt 14 hybridized with Mycobacterium smegmatis ribosomes to IC50 for inhibition of Mycobacterium smegmatis wild type ribosomes; assay type: toxicity; conditions: read-out: Ratio IC50
[5] = Inhibition of human mitochondrial ribosome Mit 13 A1555G mutant hybridized with Mycobacterium smegmatis ribosome assessed as inhibition of translation activity using Firefly luciferase mRNA reporter based luminescence analysis
[6] = system: human mitochondrial ribosome A1555G mutant (Mit 13 A1555G hybrid); assay: Selectivity ratio of IC50 for inhibition of human mitochondrial ribosome Mit 13 A1555G mutant hybridized with Mycobacterium smegmatis ribosomes to IC50 for inhibition of Mycobacterium smegmatis wild type ribosomes; assay type: toxicity; conditions: read-out: Ratio IC50
Pseudomonas aeruginosa [7] = assay: Antibacterial activity against Pseudomonas aeruginosa clinical isolate AG031; assay type: functional
Staphylococcus aureus [8] = assay: Antibacterial activity against methicillin-resistant Staphylococcus aureus clinical isolate AG039; assay type: functional
Pseudomonas aeruginosa [9] = assay: Antibacterial activity against Pseudomonas aeruginosa clinical isolate AG033; assay type: functional
Staphylococcus aureus [10] = assay: Antibacterial activity against methicillin-resistant Staphylococcus aureus clinical isolate AG042 harboring with ANT4',4\" gene; assay type: functional
Escherichia coli [11] = assay: Antibacterial activity against Escherichia coli clinical isolate AG055; assay type: functional
Escherichia coli [12] = assay: Antibacterial activity against Escherichia coli clinical isolate AG001; assay type: functional
Escherichia coli [13] = assay: Antibacterial activity against Escherichia coli clinical isolate AG003; assay type: functional
Pseudomonas aeruginosa [14] = assay: Antibacterial activity against Pseudomonas aeruginosa clinical isolate AG032; assay type: functional
Staphylococcus aureus [15] = assay: Antibacterial activity against methicillin-resistant Staphylococcus aureus clinical isolate AG038; assay type: functional

| SMILES | IC50 [1] | selectivity ratio [2] | IC50 [3] | IC50 (Bacterial 70S ribosome) | selectivity ratio [4] | IC50 [5] | selectivity ratio [6] | MIC (Pseudomonas aeruginosa [7]) | MIC (Staphylococcus aureus [8]) | MIC (Pseudomonas aeruginosa [9]) | MIC (Staphylococcus aureus [10]) | MIC (Escherichia coli [11]) | MIC (Escherichia coli [12]) | MIC (Escherichia coli [13]) | MIC (Pseudomonas aeruginosa [14]) | MIC (Staphylococcus aureus [15]) |
| --- | --- | --- | --- | --- | --- | --- | --- | --- | --- | --- | --- | --- | --- | --- | --- | --- |
| CCS[C@H]1[C@H](O)[C@@H](N)[C@@H](O[C@H]2[C@H](O[C@@H]3O[C@H](CO)[C@@H](O[C@H]4O[C@@H](CN)[C@@H](O)[C@H](O)[C@H]4N)[C@H]3O)[C@@H](O)[C@H](N)C[C@@H]2N)O[C@@H]1CO | 166 µM | 3130 | 104 µM | 0.053 µM | 1960 | 76 µM | 1430 |  |  |  |  |  |  |  |  |  |
| NC[C@@H]1O[C@H](O[C@H]2[C@@H](O)[C@H](O[C@@H]3[C@@H](O)[C@H](N)C[C@H](N)[C@H]3O[C@H]3O[C@H](CO)[C@@H](O)[C@H](O)[C@H]3N)O[C@@H]2CO)[C@H](N)[C@@H](O)[C@@H]1O [PAROMOMYCIN] | 142 µM | 3740 | 31 µM | 0.038 µM | 816 | 12 µM | 315 |  |  |  |  |  |  |  |  |  |
| CCC[C@H]1[C@H](O)[C@@H](N)[C@@H](O[C@H]2[C@H](O[C@@H]3O[C@H](CO)[C@@H](O[C@H]4O[C@@H](CN)[C@@H](O)[C@H](O)[C@H]4N)[C@H]3O)[C@@H](O)[C@H](N)C[C@@H]2N)O[C@@H]1CO | 167 µM | 5390 | 64 µM | 0.031 µM | 2060 | 52 µM | 1680 |  |  |  |  |  |  |  |  |  |
| CCN[C@@H]1C[C@H](N)[C@@H](O[C@H]2OC(CN)=CC[C@H]2N)[C@H](O)[C@H]1O[C@H]1OC[C@](C)(O)[C@H](NC)[C@H]1O [NETILMICIN] | 28 µM | 1400 | 69 µM | 0.02 µM | 3450 | 0.7 µM | 35 | 2 µg/mL (≈ 4.21 µM) | 0.5 µg/mL (≈ 1.05 µM) | > 128 µg/mL | 2 µg/mL (≈ 4.21 µM) | 2 µg/mL (≈ 4.21 µM) | 2 µg/mL (≈ 4.21 µM) | 8 µg/mL (≈ 16.8 µM) | 2 µg/mL (≈ 4.21 µM) | 0.5 µg/mL (≈ 1.05 µM) |
| CCCCC1=C(CN)O[C@H](O[C@H]2[C@H](O)[C@@H](O[C@H]3OC[C@](C)(O)[C@H](NC)[C@H]3O)[C@H](NCC)C[C@@H]2N)[C@H](N)C1 | 408 µM | 699 | 940 µM | 0.58 µM | 1610 | 22 µM | 37 | 64 µg/mL (≈ 120 µM) | 16 µg/mL (≈ 30.1 µM) | > 128 µg/mL | 64 µg/mL (≈ 120 µM) | 5 µg/mL (≈ 9.4 µM) | 8 to 16 µg/mL (≈ 15 to 30.1 µM) | 8 to 16 µg/mL (≈ 15 to 30.1 µM) | 64 µg/mL (≈ 120 µM) | 16 µg/mL (≈ 30.1 µM) |
| CCN[C@@H]1C[C@H](N)[C@@H](O[C@H]2OC(CN)=C(Cl)C[C@H]2N)[C@H](O)[C@H]1O[C@H]1OC[C@](C)(O)[C@H](NC)[C@H]1O | 58 µM | 580 | > 500 µM | 0.1 µM | > 5000 | 1.5 µM | 15 | 4 µg/mL (≈ 7.84 µM) | 8 µg/mL (≈ 15.7 µM) | > 128 µg/mL | 32 µg/mL (≈ 62.7 µM) | 2 to 4 µg/mL (≈ 3.92 to 7.84 µM) | 4 µg/mL (≈ 7.84 µM) | 16 to 32 µg/mL (≈ 31.4 to 62.7 µM) | 64 µg/mL (≈ 125 µM) | 4 µg/mL (≈ 7.84 µM) |
| CCN[C@@H]1C[C@H](N)[C@@H](O[C@H]2OC(CN)=C(c3ccccc3)C[C@H]2N)[C@H](O)[C@H]1O[C@H]1OC[C@](C)(O)[C@H](NC)[C@H]1O | 29 µM | 106 | 81 µM | 0.27 µM | 299 | 3.5 µM | 13 | 16 to 32 µg/mL (≈ 29 to 58 µM) | 16 µg/mL (≈ 29 µM) | > 64 µg/mL | 64 µg/mL (≈ 116 µM) | 2 µg/mL (≈ 3.63 µM) | 4 µg/mL (≈ 7.25 µM) | 64 µg/mL (≈ 116 µM) | 16 to 32 µg/mL (≈ 29 to 58 µM) | 8 µg/mL (≈ 14.5 µM) |
| CCN[C@@H]1C[C@H](N)[C@@H](O[C@H]2OC(CN)=C(Br)C[C@H]2N)[C@H](O)[C@H]1O[C@H]1OC[C@](C)(O)[C@H](NC)[C@H]1O | 52 µM | 520 | 146 µM | 0.1 µM | 1460 | 1.2 µM | 12 | 8 µg/mL (≈ 14.4 µM) | 8 to 16 µg/mL (≈ 14.4 to 28.9 µM) | 64 µg/mL (≈ 115 µM) | 64 µg/mL (≈ 115 µM) | 1 to 2 µg/mL (≈ 1.8 to 3.61 µM) | 2 µg/mL (≈ 3.61 µM) | 16 µg/mL (≈ 28.9 µM) | 8 µg/mL (≈ 14.4 µM) | 4 µg/mL (≈ 7.21 µM) |
| CCN[C@@H]1C[C@H](N)[C@@H](O[C@H]2OC(CN)=C(SCC)C[C@H]2N)[C@H](O)[C@H]1O[C@H]1OC[C@](C)(O)[C@H](NC)[C@H]1O | 256 µM | 381 | 783 µM | 0.67 µM | 1160 | 46 µM | 69 | > 128 µg/mL | 32 µg/mL (≈ 59.7 µM) | > 128 µg/mL | 128 µg/mL (≈ 239 µM) | 8 to 16 µg/mL (≈ 14.9 to 29.9 µM) | 16 µg/mL (≈ 29.9 µM) | 8 to 16 µg/mL (≈ 14.9 to 29.9 µM) | 128 µg/mL (≈ 239 µM) | 32 µg/mL (≈ 59.7 µM) |
| CCN[C@@H]1C[C@H](N)[C@@H](O[C@H]2OC(CN)=C(I)C[C@H]2N)[C@H](O)[C@H]1O[C@H]1OC[C@](C)(O)[C@H](NC)[C@H]1O | 49 µM | 490 | 221 µM | 0.1 µM | 2210 | 1.5 µM | 15 | 4 to 8 µg/mL (≈ 6.65 to 13.3 µM) | 16 µg/mL (≈ 26.6 µM) | > 128 µg/mL | 64 µg/mL (≈ 106 µM) | 1 to 2 µg/mL (≈ 1.66 to 3.33 µM) | 2 µg/mL (≈ 3.33 µM) | 16 µg/mL (≈ 26.6 µM) | 4 to 8 µg/mL (≈ 6.65 to 13.3 µM) | 4 to 8 µg/mL (≈ 6.65 to 13.3 µM) |
